GI50 and TGI data for 9 molecules are collected here from PubChem BioAssay (NCI).

Among the test systems are ACHN renal; OVCAR-8 ovarian; UACC-257 melanoma; SNB-19 CNS; OVCAR-5 ovarian; MOLT-4 leukemia; OVCAR-4 ovarian; KM12 colon; SF-295 CNS; 786-0 renal.
Holding throughout (test): inhibition of tumour cell growth, NCI panel, 48 h

The structures appear in SMILES notation.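 Five concentrations, 48 hours, 96-well plates. GI50 is the concentration that inhibits growth by half. Definition used: TGI = concentration required for complete inhibition of growth.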

For the molecule `C=C1C(=O)O[C@H]2[C@H]1CC/C(COC(=O)NCc1c[nH]c3ccc(Cl)cc13)=C\CC[C@@]1(C)O[C@@H]21`, the GI50 in the assay on ACHN renal was 1.33 µM; in the assay on OVCAR-8 ovarian, 1.38 µM; in the assay on UACC-257 melanoma, 1.63 µM; with SNB-19 CNS, 3.72 µM; in the assay on OVCAR-5 ovarian it was 1.77 µM; in the assay with MOLT-4 leukemia, 1.34 µM. Also, the GI50 in the assay with OVCAR-4 ovarian is 1.45 µM; in the assay with KM12 colon, 2.37 µM; in the assay on SF-295 CNS it was 1.81 µM; with 786-0 renal, 1.07 µM. Also, the TGI with ACHN renal is 2.61 µM; in the assay on OVCAR-8 ovarian, 3.36 µM; in the assay on UACC-257 melanoma, 3.11 µM; in the assay on SNB-19 CNS, 14.7 µM; in the assay with OVCAR-5 ovarian, 4.01 µM; with MOLT-4 leukemia it was 4.91 µM. Besides, the TGI in the assay on OVCAR-4 ovarian came out at 3.16 µM; with KM12 colon, 6.28 µM; with SF-295 CNS, 4.09 µM; in the assay on 786-0 renal, 2.49 µM.
With `CC1OC(OCC2COC(O)(Oc3c(-c4ccc(O)c(O)c4)oc4cc(O)cc(O)c4c3=O)C(O)C2O)C(O)C(O)C1O` (centres undefined), the TGI with ACHN renal, in the assay with OVCAR-8 ovarian, with UACC-257 melanoma, in the assay on SNB-19 CNS, with OVCAR-5 ovarian and with MOLT-4 leukemia was more than 100 µM throughout. Also, the TGI in the assay on OVCAR-4 ovarian, in the assay with KM12 colon, in the assay on SF-295 CNS and with 786-0 renal was more than 100 µM throughout.
Consider `COc1ccccc1CNCCCN1C(=O)c2ccc3c4c(ccc(c24)C1=O)C(=O)N(CCCNCCCN)C3=O`, for which the GI50 was 0.526 µM with ACHN renal; 0.0735 µM with OVCAR-8 ovarian; 0.607 µM in the assay with UACC-257 melanoma; 0.605 µM with SNB-19 CNS; 1.41 µM in the assay with OVCAR-5 ovarian; 0.182 µM in the assay on MOLT-4 leukemia. Moreover, the GI50 with OVCAR-4 ovarian was 0.847 µM; in the assay on KM12 colon it was 0.705 µM; in the assay with SF-295 CNS, 0.45 µM; with 786-0 renal, 0.712 µM. Moreover, the TGI in the assay with ACHN renal is 10.3 µM; in the assay with OVCAR-8 ovarian, 2.83 µM; with UACC-257 melanoma, 1.98 µM; with SNB-19 CNS, 4.05 µM; with OVCAR-5 ovarian, 7.36 µM; with MOLT-4 leukemia, 1.99 µM. Moreover, the TGI with OVCAR-4 ovarian stood at 2.67 µM; in the assay with KM12 colon, 4.14 µM; in the assay on SF-295 CNS, 4.61 µM; with 786-0 renal it was 7.18 µM.
As to `Cc1ccc(C)c(-c2csc(Nc3ccc(C)c(C)c3)n2)c1`, the GI50 in the assay with ACHN renal is 82.2 µM; in the assay on OVCAR-8 ovarian, 74.7 µM; in the assay with UACC-257 melanoma it was more than 100 µM; in the assay on SNB-19 CNS, 77 µM; in the assay with OVCAR-5 ovarian, more than 100 µM; in the assay with MOLT-4 leukemia, more than 100 µM. The GI50 was 48.3 µM in the assay with OVCAR-4 ovarian, more than 100 µM with KM12 colon, 57.9 µM in the assay on SF-295 CNS and 39.5 µM with 786-0 renal. For the same molecule, the TGI in the assay with ACHN renal, with OVCAR-8 ovarian, in the assay with UACC-257 melanoma, in the assay on SNB-19 CNS, with OVCAR-5 ovarian and in the assay on MOLT-4 leukemia was more than 100 µM each time. Further, the TGI in the assay with OVCAR-4 ovarian, in the assay with KM12 colon, in the assay with SF-295 CNS and with 786-0 renal was more than 100 µM in each case.
In the case of `O=C(COc1ccccc1)NS(=O)(=O)c1ccccc1`, the TGI with ACHN renal, with OVCAR-8 ovarian, with UACC-257 melanoma, with SNB-19 CNS, in the assay with OVCAR-5 ovarian and with MOLT-4 leukemia was more than 100 µM throughout. The TGI with OVCAR-4 ovarian, in the assay on KM12 colon, in the assay on SF-295 CNS and with 786-0 renal was more than 100 µM in each case.
Take `COc1ccc(NC(=O)c2sc3nc(C)c(C(O)c4ccccc4)cc3c2N)cc1` (centres undefined): the GI50 in the assay with ACHN renal was 4.09 µM; in the assay on OVCAR-8 ovarian, 4.01 µM; with UACC-257 melanoma, 3.86 µM; in the assay with SNB-19 CNS, 5.24 µM; in the assay with OVCAR-5 ovarian it was 4.74 µM; in the assay on MOLT-4 leukemia it was 3.57 µM. The GI50 in the assay on OVCAR-4 ovarian is 3.72 µM; in the assay on KM12 colon it was 2 µM; in the assay on SF-295 CNS, 1.25 µM; in the assay with 786-0 renal, 4.63 µM. Moreover, the TGI in the assay on ACHN renal is more than 100 µM; in the assay on OVCAR-8 ovarian it was more than 100 µM; in the assay with UACC-257 melanoma, 46.1 µM; with SNB-19 CNS it was more than 100 µM; in the assay with OVCAR-5 ovarian it was more than 100 µM; in the assay on MOLT-4 leukemia, 34 µM. Also, the TGI in the assay with OVCAR-4 ovarian is more than 100 µM; with KM12 colon, 23.5 µM; in the assay on SF-295 CNS, 18.2 µM; with 786-0 renal it was more than 100 µM.
With `Cc1cc(Cl)cc2c1NC(=O)C2(O)C(C)C(=O)c1ccc(Cl)cc1` (centres undefined), the TGI in the assay on ACHN renal was more than 100 µM; in the assay with OVCAR-8 ovarian, more than 100 µM; in the assay with UACC-257 melanoma, more than 66.2 µM; in the assay with SNB-19 CNS, more than 100 µM; with OVCAR-5 ovarian, more than 100 µM; in the assay on MOLT-4 leukemia it was 87.7 µM. In addition, the TGI was 62.1 µM in the assay with OVCAR-4 ovarian, more than 100 µM in the assay on KM12 colon, more than 100 µM in the assay with SF-295 CNS and more than 100 µM in the assay on 786-0 renal.
On to `COc1ccc2nc3ccccc3c(NCCCCCCN(C)CCCl)c2c1`, for which the TGI was determined as 2.36 µM with ACHN renal; 1.81 µM in the assay with OVCAR-8 ovarian; 3.19 µM in the assay on UACC-257 melanoma; 2.77 µM in the assay on SNB-19 CNS; 3.25 µM with OVCAR-5 ovarian; 0.165 µM in the assay on MOLT-4 leukemia. The TGI came out at 3.03 µM in the assay on OVCAR-4 ovarian, 1.44 µM with KM12 colon, 2.88 µM in the assay with SF-295 CNS and 1.53 µM in the assay with 786-0 renal.
On to `COc1cc(C(=O)c2cc3c(cc2C)OCO3)cc(OC)c1OC`, for which the GI50 with ACHN renal is 0.289 µM; in the assay on OVCAR-8 ovarian it was 0.317 µM; in the assay on UACC-257 melanoma it was 91.7 µM; with OVCAR-5 ovarian it was 0.439 µM; with MOLT-4 leukemia, 0.117 µM; with OVCAR-4 ovarian, 0.83 µM. For the same molecule, the GI50 with KM12 colon was 0.07 µM; in the assay on SF-295 CNS, 0.102 µM; in the assay with 786-0 renal, 0.322 µM. Also, the TGI in the assay with ACHN renal, in the assay on OVCAR-8 ovarian, in the assay with UACC-257 melanoma, in the assay with SNB-19 CNS, in the assay with OVCAR-5 ovarian and with MOLT-4 leukemia was more than 100 µM each time. Moreover, the TGI with OVCAR-4 ovarian, in the assay with KM12 colon, in the assay with SF-295 CNS and with 786-0 renal was more than 100 µM each time.
